Measured values: patent US20230256058A1 (MAPI PHARMA LTD., priority 2020, published 2023)

Experiments:
[1] = cited from earlier work
[2] = Plasma concentrations of liraglutide formulations in db/db mice; assay type: in vivo; details: 200 μg/kg SC daily
Procedure: Treatment Groups: 1. Naïve control normal mice (n=6) • 2. Placebo (vehicle) control db/db mice (n=8) • 3.
• Ad lib fed blood glucose levels were recorded every 3rd day throughout the study period i.e. on Day-1, Day-3, Day-6, Day-9, Day-12, Day-15, Day-18, Day-21, Day-24, and Day-27. […] (before treatment) and 3 hr. post treatment. • On Day-1 and Day-28, blood samples were collected for the measurement of HbA1C levels. • Body weight and feed intake were recorded every day throughout treatment period.

[3] = in vivo; cited from earlier work

Row | Plasma levels (in words) ([2]; post 3 hr. of injection) | Plasma levels (in words) ([2]; post 24 hr. of treatment) | Compound | Steady state therapeutic plasma concentration ([1]; VICTOZA Prescribing Information) | Human range for clinically effective concentrations ([1]; human, Ingwersen S. H. et al. J. Clin. Pharmacol. 2012) [nmol/L] | Pharmacokinetic half-life [3] [min]
1 | increase in plasma levels | detectable plasma levels | CCCCCCCCCCCCCCCC(=O)N[C@@H](CCC(=O)NCCCC[C@H](NC(=O)[C@H](C)NC(=O)[C@H](C)NC(=O)[C@H](CCC(N)=O)NC(=O)CNC(=O)[C@H](CCC(=O)O)NC(=O)[C@H](CC(C)C)NC(=O)[C@H](Cc1ccc(O)cc1)NC(=O)[C@H](CO)NC(=O)[C@H](CO)NC(=O)[C@@H](NC(=O)[C@H](CC(=O)O)NC(=O)[C@H](CO)NC(=O)[C@@H](NC(=O)[C@H](Cc1ccccc1)NC(=O)[C@@H](NC(=O)CNC(=O)[C@H](CCC(=O)O)NC(=O)[C@H](C)NC(=O)[C@@H](N)Cc1cnc[nH]1)[C@@H](C)O)[C@@H](C)O)C(C)C)C(=O)N[C@@H](CCC(=O)O)C(=O)N[C@@H](Cc1ccccc1)C(=O)N[C@H](C(=O)N[C@@H](C)C(=O)N[C@@H](Cc1c[nH]c2ccccc12)C(=O)N[C@@H](CC(C)C)C(=O)N[C@H](C(=O)N[C@@H](CCCNC(=N)N)C(=O)NCC(=O)N[C@@H](CCCNC(=N)N)C(=O)NCC(=O)O)C(C)C)[C@@H](C)CC)C(=O)O [L-API, liraglutide] | about 128 ng/mL | 5 to 45 | –
2 | – | – | GLP-1 | – | – | 2 to 5
